# How the values were obtained:
# HFF cells = assay type: cell-based; settings: human, 24 h, 100 µM
# Protocol: (§1) Cultures of Human foreskin fibroblast (HFF; HFF-1 ATCC® SCRC-1041™), Madin–Darby bovine kidney (MDBK; ECACC) and mouse embryonic fibroblast (NIH/3T3; ATCC® CRL-1658™) cell lines were retrieved from −80 °C stock and cultured continuously at 37 °C under atmosphere 5% CO2 in our laboratory. The NIH/3T3 and HFF cell lines were maintained in Dulbecco Modified Eagle’s Medium (DMEM; Gibco, Grand Island, NY, USA), while MDBK cell line grown in Minimum Essential Medium Eagle (MEM; Gibco). Each medium was treated with 1% glutamine, 10% fetal bovine serum and 0.5% penicillin/streptomycin (Gibco). Every 72 to 96 h, the medium was replaced, and once 80% confluence was reached, the cell collection was performed by sub-culture protocol. To confirm the absence of mycoplasma contamination, 4,6-diamidino-2-phenylindole dihydrochloride (Sigma-Aldrich) stain was used [9].
# (§2) The cell viability test was conducted in a 96-well plate as described elsewhere [4, 9, 51, 52]. Briefly, an aliquot of (100 µL) cells was implanted at a concentration of 5 × 10^4 cells/mL in DMEM or MEM with fetal bovine serum and incubated overnight under atmosphere 5% CO2 at 37 °C for attachment. […] After a 24-h incubation, Cell Counting Kits-8 (CCK-8) (10 µL) was added per well followed by the incubation of the plate for another 3 hours and a microplate reader was used to measure the absorbance at 450 nm.
# MDBK cells = test: cells; assay type: cell-based, bovine
# Protocol: as §1, §2
# NIH/3T3 cells = settings: mouse, 24 h, 100 µM
# Protocol: as §1, §2
# B. microti = test: in vivo chemotherapeutic efficacy in B. microti-infected BALB/c mice
# Protocol: MEBV and AERC were examined for their in vivo chemotherapeutic efficacy using B. microti-infected BALB/c mice according to a procedure described elsewhere. Briefly, twenty-five mice were placed in an environment free from pathogens with 22 °C temperature and adjusted humidity and under 12 h light and 12 h darkness and randomly distributed into five groups. All mice in groups 2 through 5 obtained 500 μL of 1 × 10^7 B. microti-iRBC by intraperitoneal (i.p.) injection. Group 1 served as a negative control and was neither infected nor treated. At 1% parasitemia, drug treatment of the mice […]. continuing for five days. Group 2 act as a positive control group and received 95% double-distilled water (DDW) and 5% DMSO. Groups 3 and 4 administered 150 mg/kg body weight (BW) of MEBV and AERC by the oral route, respectively. […] Furthermore, the hematological parameters, including HGB, RBCs, and HCT percentage were examined every four days using an automatic hematology analyzer (Celltac α MEK-6450, Nihon Kohden, Tokyo, Japan) to detect the effect of MEBV and AERC on the retrogression of anemia related to Babesia infection. […]
# [1] = tested on: L. donovani promastigotes; set-up: method as in PMID 2360830; settings: read-out: IC50 leishmanicidal effect; cited from earlier work
# T. vaginalis = tested on: T. vaginalis; set-up: method as in PMID 29390009; settings: cited from earlier work
# [2] = tested on: Trypanosoma brucei brucei; set-up: method as in PMID 28654013; settings: cited from earlier work
smiles,measurement,setting,value
"O=C1C(O)=C([C@H]2CC[C@H](c3ccc(Cl)cc3)CC2)C(=O)c2ccccc21 [ATV, atovaquone]",effect on cell viability,HFF cells,neither DMA nor ATV (final concentration 100 µM) restricted the viability
same,effect on cell viability,"MDBK cells; bovine, 24 h, 100 µM",neither DMA nor ATV (final concentration 100 µM) restricted the viability
same,effect on cell viability,NIH/3T3 cells,neither DMA nor ATV (final concentration 100 µM) restricted the viability
"CC(C)/N=c1\cc2n(-c3ccc(Cl)cc3)c3ccccc3nc-2cc1Nc1ccc(Cl)cc1 [CLF, clofazimine]",EC50,"MDBK cells; Bos taurus, MDBK cells, reference drug, read-out: EC50 MDBK cell viability",34 ± 3.4 µM
"CC(=O)NCC(=O)O.CC(=O)NCC(=O)O.N=C(N)c1ccc(N=NNc2ccc(C(=N)N)cc2)cc1 [DMA, diminazene aceturate]",peak parasitemia level,"B. microti; 25 mg/kg BW, 5 days (day 4 to 8 p.i.), B. microti-infected BALB/c mice",5%
same,inhibition of B. microti multiplication,"B. microti; 25 mg/kg, eighth day post-infection",92%
COc1ccc2cc3[n+](cc2c1OC)CCc1cc2c(cc1-3)OCO2 [berberine],IC50,[1],7.1 µM
C=CCc1ccc(OC)c(OC)c1 [methyleugenol],IC50 growth of T. vaginalis,T. vaginalis,100 µg/mL
CC(C)=CCCC(C)c1ccc(C)cc1 (stereo not drawn) [α-curcumene],IC50 antitrypanosomal activity,[2],13.38 µg/mL
same,IC50 growth of T. vaginalis,T. vaginalis,100 µg/mL
C=C1CC/C=C(\C)CC[C@@H]2[C@@H]1CC2(C)C [β-caryophyllene],IC50 growth of T. vaginalis,T. vaginalis,100 µg/mL

# From paper PMC7037273, “Phytochemical Screening and Antiprotozoal Effects of the Methanolic Berberis Vulgaris and Acetonic Rhus Coriaria Extracts” (Molecules, 2020)
